In EP2951180B1, “2,6,7,8 SUBSTITUTED PURINES AS HDM2 INHIBITORS” (Merck Sharp & Dohme Corp., priority 2013, dated 2014) one finds IC50 and inhibition data, which are given here for 26 compounds.

Like-named read-outs stand apart in the source and are kept apart here.

The assay addresses T1, HDM2 (Homo sapiens, UniProt Q00987).
T1 construct: Thioredoxin (N); made in house; host or cells: E. coli strain BL21(DE3)Rosetta
Briefly: HDM2 FRET assay (inhibition of binding of FITC labeled p53-pocket peptide to HDM2). As to conditions: for IC50: read-out: FRET IC50. A digest of the protocol:
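Displacement of FITC-p53 peptide (3 nM) from His-tagged HDM2 (0.5 nM) is measured by Tb-to-fluorescein FRET in PBS, 0.01% BSA, 0.01% Tween-20. IC50 values derive from 10-point curves.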

Setting [1] is: 0.5 nM HDM2 (residues 17 to 125), 3nM peptide, two hour incubation at room temperature.

T1 sequence (Q00987 17-125): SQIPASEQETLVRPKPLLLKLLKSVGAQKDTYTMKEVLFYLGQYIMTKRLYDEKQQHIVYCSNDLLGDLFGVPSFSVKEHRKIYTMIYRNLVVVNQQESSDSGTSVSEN

As for `C[C@H]1CC[C@H](Cn2c(N3CCOC[C@H]3c3ccc(F)cc3)nc3nc(-c4noc(=O)[nH]4)nc(-c4cncc(Cl)c4)c32)CC1` [Example 16.93, 3-{6-(5-chloropyridin-3-yl)-8-[(3R)-3-(4-fluorophenyl)morpholin-4-yl]-7-[(trans-4-methylcyclohexyl)methyl]-7H-purin-2-yl}-1,2,4-oxadiazol-5(4H)-one], the IC50 under setting [1] turned out to be 1.37 nM.
Consider `CC[C@@H](C)Nc1nc(C(=O)O)nc2nc(-c3cccc(C)c3)n(Cc3ccc(C(F)(F)F)cc3)c12` [Example 6.60, 8-(3-methylphenyl)-6-{[(1R)-1-methylpropyl]amino}-7-[4-(trifluoromethyl)benzyl]-7H-purine-2-carboxylic acid], for which, where the note is “Table 6”, the IC50 came to 583 nM.
In the case of `CC([C@H]1CC[C@H](C)CC1)n1c(N2CCOC[C@H]2C)nc2nc(-c3n[nH]c(=O)o3)nc(-c3cccc(Cl)c3)c21` (single isomer, unassigned) [Example 18.36], where the note is “Table 18”, the IC50 was 8.87 nM.
`Cc1cccc(Nc2nc(C(=O)O)nc3nc(-c4cccc(C)c4)n(Cc4ccc(C(F)(F)F)cc4)c23)c1` [Example 6.94, 8-(3-methylphenyl)-6-[(3-methylphenyl)amino]-7-[4-(trifluoromethyl)benzyl]-7H-purine-2-carboxylic acid]: under “read-out: inh. at 1000 nM (FRET)”, the inhibition at 1 µM turned out to be 32%.
Consider `CC1CCCN(c2nc3nc(C(=O)O)nc(N[C@H](C)C4CCC4)c3n2Cc2ccc(C(F)(F)F)cc2)C1` (stereo partly drawn) [Example 9.40, 6-{[(1R)-1-cyclobutylethyl]amino}-8-(3-methylpiperidin-1-yl)-7-[4-(trifluoromethyl)benzyl]-7H-purine-2-carboxylic acid], for which the IC50 (Table 9) came out at 12.2 nM.
As to `Cc1nonc1CN(C)c1nc2nc(-c3noc(=O)[nH]3)nc(N[C@H](C)C3CCC3)c2n1C[C@H]1CC[C@H](C)CC1` [Example 11.63, 3-(6-{[(1R)-1-cyclobutylethyl]amino}-7-[(trans-4-methylcyclohexyl)methyl]-8-{methyl[(4-methyl-1,2,5-oxadiazol-3-yl)methyl]amino}-7H-purin-2-yl)-1,2,4-oxadiazol-5(4H)-one], the IC50 (Table 11) stood at 3.71 nM.
As to `C[C@H](Nc1nc2nc(C(=O)O)nc(N[C@H](C)C3CCC3)c2n1Cc1ccc(C(F)(F)F)cc1)c1ccc(F)cc1` [Example 9.1, 6-{[(1R)-1-cyclobutylethyl]amino}-8-{[(1S)-1-(4-fluorophenyl)ethyl]amino}-7-[4-(trifluoromethyl)benzyl]-7H-purine-2-carboxylic acid], the IC50 (Table 9) was 1.81 nM.
The same measure, in the same setting: for `C[C@@H](Nc1nc(C(=O)O)nc2nc(N3CCCC3c3ccccc3)n(Cc3ccc(C(F)(F)F)cc3)c12)C1CCC1` (single isomer, unassigned) [Example 9.65] the value was 11.4 nM.
In the case of `C[C@@H](Nc1nc(-c2noc(=O)[nH]2)nc2nc(C(O)(CO)c3ccccc3)n(C[C@H]3CC[C@H](C)CC3)c12)C1CCC1` (single isomer, unassigned) [Example 22.61], the IC50 (Table 22) came out at 2.8 nM.
For `C[C@@H](Nc1nc(C(O)CO)nc2nc(N3CCOC[C@H]3c3ccccc3)n(C[C@H]3CC[C@H](C)CC3)c12)C1CCC1` (stereo partly drawn) [Example 12.20, 1-(6-(((R)-1-cyclobutylethyl)amino)-7-((trans-4-methylcyclohexyl)methyl)-8-((R)-3-phenylmorpholino)-7H-purin-2-yl)ethane-1,2-diol], the IC50 under setting [1] stood at 49.4 nM.
As to `C[C@@H](Nc1nc(C(=O)O)nc2nc(C3(c4ccccc4)CC3)n(C[C@H]3CC[C@H](C)CC3)c12)C1CCC1` [Example 20.4, 6-{[(1R)-1-cyclobutylethyl]amino}-7-[(trans-4-methylcyclohexyl)methyl]-8-(1-phenylcyclopropyl)-7H-purine-2-carboxylic acid], the IC50 (Table 20) was 2.58 nM.
In the case of `C[C@@H](Nc1nc(-c2n[nH]c(=O)o2)nc2nc(C(=O)c3ccccc3)n(C[C@H]3CC[C@H](C)CC3)c12)C1CCC1` [Example 22.22, 5-[6-{[(1R)-1-cyclobutylethyl]amino}-7-[(trans-4-methylcyclohexyl)methyl]-8-(phenylcarbonyl)-7H-purin-2-yl]-1,3,4-oxadiazol-2(3H)-one], the IC50 (Table 22) was found to be 3.93 nM.
For `CC(C)c1cc(F)nc(-c2nc3nc(-c4noc(=O)[nH]4)nc(N[C@H](C)C4CCC4)c3n2C[C@H]2CC[C@H](C)CC2)c1` [Example 15.5, 3-(6-(((R)-1-cyclobutylethyl)amino)-8-(6-fluoro-4-isopropylpyridin-2-yl)-7-((trans-4-methylcyclohexyl)methyl)-7H-purin-2-yl)-1,2,4-oxadiazol-5(2H)-one], the IC50 under setting [1] came out at 33.5 nM.
Same read-out and setting: the same measure for `CC(C)[S+]([O-])c1nc(N[C@H](C)C2CCC2)c2c(n1)nc(N1CCOC[C@H]1c1ccccc1)n2C[C@H]1CC[C@H](C)CC1` (stereo partly drawn) [Example 14.8, N-[(1R)-1-cyclobutylethyl]-7-[(trans-4-methylcyclohexyl)methyl]-2-[(1-methylethyl)sulfinyl]-8-[(3R)-3-phenylmorpholin-4-yl]-7H-purin-6-amine]: 15.5 nM.
Consider `CCCN(c1nc2nc(C(=O)O)nc(N[C@H](C)C3CCC3)c2n1Cc1ccc(C(F)(F)F)cc1)[C@@H](C)c1cccc(F)c1` [Example 10.26, 6-{[(1R)-1-cyclobutylethyl]amino}-8-{[(1S)-1-(3-fluorophenyl)ethyl](propyl)amino}-7-[4-(trifluoromethyl)benzyl]-7H-purine-2-carboxylic acid], for which the IC50 (Table 10) worked out at 1.94 nM.
Regarding `C[C@@H]1OCCN(c2nc3nc(-c4noc(=O)[nH]4)nc(N[C@H](C)C4CCC4)c3n2C[C@H]2CC[C@H](C)CC2)[C@@H]1c1ccccc1` [Example 11.163, 3-(6-{[(1R)-1-cyclobutylethyl]amino}-7-[(trans-4-methylcyclohexyl)methyl]-8-[(2S,3R)-2-methyl-3-phenylmorpholin-4-yl]-7H-purin-2-yl)-1,2,4-oxadiazol-5(4H)-one], the IC50 (Table 11) stood at 21.2 nM.
On to `C[C@@H](Nc1nc(C(=O)O)nc2nc(N3CCCCC3c3cccnc3)n(Cc3ccc(C(F)(F)F)cc3)c12)C1CCC1` (stereo partly drawn) [Example 9.114, 6-{[(1R)-1-cyclobutylethyl]amino}-8-(2-pyridin-3-ylpiperidin-1-yl)-7-[4-(trifluoromethyl)benzyl]-7H-purine-2-carboxylic acid], for which the IC50 (Table 9) worked out at 110 nM.
Same read-out and setting: the same measure for `C[C@@H](Nc1nc(C(=O)O)nc2nc(N3CCCCC3c3ccncc3)n(Cc3ccc(C(F)(F)F)cc3)c12)C1CCC1` (stereo partly drawn) [Example 9.115, 6-{[(1R)-1-cyclobutylethyl]amino}-8-(2-pyridin-4-ylpiperidin-1-yl)-7-[4-(trifluoromethyl)benzyl]-7H-purine-2-carboxylic acid]: 16.6 nM.
As for `C[C@H]1CC[C@H](Cn2c(N[C@@H](CO)c3ccccc3)nc3nc(-c4noc(=O)[nH]4)nc(-c4cccc(Cl)c4)c32)CC1` [Example 16.38, 3-{6-(3-chlorophenyl)-8-{[(1R)-2-hydroxy-1-phenylethyl]amino}-7-[(trans-4-methylcyclohexyl)methyl]-7H-purin-2-yl}-1,2,4-oxadiazol-5(4H)-one], the IC50 under setting [1] came to 1.95 nM.
For the compound `C[C@H]1CC[C@H](Cn2c(N3CCOC[C@H]3c3ccccc3)nc3nc(-c4noc(=O)[nH]4)nc(-c4cncc(Cl)c4)c32)CC1` [Example 16.26, 3-{6-(5-chloropyridin-3-yl)-7-[(trans-4-methylcyclohexyl)methyl]-8-[(3R)-3-phenylmorpholin-4-yl]-7H-purin-2-yl}-1,2,4-oxadiazol-5(4H)-one], the IC50 under setting [1] is 0.517 nM.
Same read-out and setting: the same measure for `C[C@H](O)[C@H](Nc1nc2nc(-c3noc(=O)[nH]3)nc(-c3cccc(Cl)c3)c2n1C[C@H]1CC[C@H](C)CC1)c1ccccc1` [Example 16.8, 3-(6-(3-chlorophenyl)-8-(((1R,2S)-2-hydroxy-1-phenylpropyl)amino)-7-(((trans)-4-methylcyclohexyl)methyl)-7H-purin-2-yl)-1,2,4-oxadiazol-5(4H)-one]: 1.49 nM.
With `C[C@@H](Nc1ncnc2nc(N[C@@H](CO)c3ccccc3)n(Cc3ccc(C(F)(F)F)cc3)c12)C1CCC1` [Example 9.29], the IC50 (Table 9) was found to be 4470 nM.
As for `C[C@@H](Nc1nc(-c2noc(=O)[nH]2)nc2nc(C(=O)c3ccccc3)n(C[C@H]3CC[C@H](C)CC3)c12)C1CCC1` [Example 22.21, 3-[6-{[(1R)-1-cyclobutylethyl]amino}-7-[(trans-4-methylcyclohexyl)methyl]-8-(phenylcarbonyl)-7H-purin-2-yl]-1,2,4-oxadiazol-5(4H)-one], where the note is “Table 22”, the IC50 amounted to 1 nM.
Take `CC(Oc1ccccc1)c1nc2nc(C(=O)O)nc(N[C@H](C)C3CCC3)c2n1Cc1ccc(C(F)(F)F)cc1` (stereo partly drawn) [Example 10.8, 6-(((R)-1-Cyclobutylethyl)amino)-8-(1-phenoxyethyl)-7-(4-(trifluoromethyl)benzyl)-7H-purine-2-carboxylic acid]: the IC50 (Table 10) stood at 28.9 nM.
With `CC1CCCCN1c1nc2nc(C(=O)O)nc(N[C@H](C)C3CCC3)c2n1C[C@H]1CC[C@H](C)CC1` (stereo partly drawn) [Example 11.29, 6-{[(1R)-1-cyclobutylethyl]amino}-7-[(trans-4-methylcyclohexyl)methyl]-8-(2-methylpiperidin-1-yl)-7H-purine-2-carboxylic acid], the IC50 (Table 11) amounted to 2.23 nM.
Consider `CC(C)c1ccnc(-c2nc3nc(CNC(=O)C(F)(F)F)nc(N[C@H](C)C4CCC4)c3n2C[C@H]2CC[C@H](C)CC2)c1` [Example 12.10, N-[(6-{[(1R)-1-cyclobutylethyl]amino}-7-[(trans-4-methylcyclohexyl)methyl]-8-[4-(propan-2-yl)pyridin-2-yl]-7H-purin-2-yl)methyl]-2,2,2-trifluoroacetamide], for which the inhibition at 1 µM (read-out: % inh. at 1000 nM, at 1000 nM compound) amounted to 30%.

What is called IC50 is the concentration needed to halve the response being measured.
